{"source": "patent US10327423B2", "about": "“Antimicrobial compounds and compositions, and uses thereof” (Akeso Biomedical, Inc., priority 2014, dated 2019)", "key": {"EPEC-pgA^++": {"test_system": "EPEC-pgA^++", "experiment": "Crystal violet assay of disruption of a mature biofilm", "format": "cell-based, Escherichia coli", "settings": "FeTyr 100, 150 and 200 μM; 72 hours", "protocol": "A mature biofilm formed by EPEC-pgA^++ was treated with FeTyr for 24, 48 and 72 hours at FeTyr concentrations of 100 μM, 150 μM and 200 μM and the presence of the biofilm after these times was compared to an untreated biofilm (labeled “Control”) using a crystal violet assay. The color of the control wells was more intense in color at 72 hours than those that were treated with FeTyr at 100, 150 and 200 μM for 72 hours."}, "[1]": {"experiment": "Growth performance of broilers challenged with Campylobacter dirty litter at day 20", "format": "in vivo, chicken (Ross 308 male broilers)", "settings": "treatment groups 3, 5, 6, 7 (FeQ) and 8 (FeTyr)", "protocol": "(§1) A study was performed to evaluate growth promotion and reduction of Campylobacter carriage using FeQ and FeTyr in Ross 308 male broilers with 7 treatment groups. Each treatment group comprised four replicates of 10 birds per pen (40 birds/treatment group and 4 pens of 10 birds/treatment group), and there were 2 control groups and 5 test groups. All the test groups and one of the control groups were exposed at day 20 of the trial to dirty litter, which tested positive for Campylobacter. This method was used to provide a more natural method to Campylobacter challenge the birds. Thus there was a positive control where one treatment group was challenged with Campylobacter and one negative control group where the birds were not challenged, and five treatment groups that were all challenged with Campylobacter. The total number of birds used in the 7 treatment groups was 280. Treatment group 1 was a negative control where birds just received the commercial feed, and were not challenged with dirty litter containing Campylobacter. Treatment group 2 was the positive control where the birds received the commercial feed, and were challenged with dirty litter containing Campylobacter at day 20. Treatment group 3 received 0.22 g/L of FeQ in their drinking water and 0.22 g/Kg FeQ in their feed during the entire trial, and was challenged with dirty litter containing Campylobacter at day 20. Treatment group 5 received 0.22 g/L of FeQ in their drinking water during the entire trial, and was challenged with dirty litter containing Campylobacter at day 20. Treatment group 6 received 0.22 g/kg FeQ in their feed during the entire trial, and was challenged with dirty litter containing Campylobacter at day 20. Treatment group 7 received 0.022 g/L FeQ in their drinking water during the entire trial, and was challenged with dirty litter containing Campylobacter at day 20. Treatment group 8 received 0.02 g/L FeTyr in their drinking water during the entire trial, and was challenged with dirty litter containing Campylobacter at day 20. The FeTyr was pre-dissolved in DMSO, and diluted to provide a solution of 0.02 g/L of FeTyr in water. (An additional treatment group 4 was terminated due to solubility issues.) […]\nThe feeding program is show in Table 4. […] All birds were weighed individually and feed weigh backs recorded per pen at day 0, 11, 21, 24 and 42 days.\nIn order to minimize risk of cross-contamination, standard industry biosecurity measures were used including: disinfecting boots, changing overshoes and gloves between pens/treatments, entering Campylobacter negative pens before entering Campylobacter positive pens, and leaving adjacent pens empty. Daily health, culls, and mortality were recorded. All bird weights were recorded at 0, 11, 21, 24, 33 and 42 days. […]"}, "EPEC-AcsrA": {"test_system": "EPEC-AcsrA", "experiment": "BioFlux system, disruption of a mature biofilm", "format": "cell-based, Escherichia coli", "settings": "20 hours", "protocol": "The mature biofilm was treated with FeTyr at concentrations of 100, 150 and 200 μM for 20 hours and compared to a control biofilm that had just been treated with LB medium 30% v/v. […] Mature biofilm was treated with FeDOPA at a concentration of 100 μM for 20 hours and compared to a control biofilm that had just been treated with LB medium 30% v/v."}, "[2]": {"test_system": "Enteropathogenic E. coli (EPEC) strain E2348/69", "experiment": "Growth curve of antibiotic resistant EPEC with gentamicin and Fe complex", "format": "cell-based, Escherichia coli", "protocol": "The impact on the growth curve of antibiotic resistant Enteropathogenic E. coli (EPEC) strain E2348/69 (genotype Wild Type EPEC O17:H6) when grown in the presence of (i) gentamicin (1.25 μM), (ii) Fe-Tyr (100 μM), (iii) gentamicin (1.25 μM) and Fe-Tyr (1.25 μM), and (iv) a control with no gentamicin or Fe-Tyr present was determined.\n(§2) The impact on the growth curve of antibiotic resistant Enteropathogenic E. coli (EPEC) strain E2348/69 (genotype Wild Type EPEC O17:H6) when grown in the presence of a fixed concentration of gentamicin (1.25 μM) and an increasing concentration of FeQ versus the strain grown in the presence of only FeQ or only gentamicin, was determined.\nas §2, with “FeDOPA” for “FeQ”"}, "Campylobacter": {"test_system": "Campylobacter", "experiment": "Campylobacter carriage in chickens (cfu/g of droppings and caeca samples)", "format": "in vivo", "settings": "treatment groups 3, 5, 6, 7 (FeQ) and 8 (FeTyr), days 0-42; dirty litter challenge", "protocol": "as §1, with “20.” for “20. Treatment group 7 received 0.022 g/L FeQ in their drinking water during the entire trial, and was challenged with dirty litter containing Campylobacter at day 20. Treatment group 8 received 0.02 g/L FeTyr in their drinking water during the entire trial, and was challenged with dirty litter containing Campylobacter at day 20. The FeTyr was pre-dissolved in DMSO, and diluted to provide a solution of 0.02 g/L of FeTyr in water. (An additional treatment group 4 was terminated due to solubility issues.)”\nPrior to challenging the chickens with dirty litter containing Campylobacter at day 20, each pen was tested for Campylobacter using cloacal swabs. […] Samples were analyzed for blood chemistry, including analysis for alkaline phosphatase, aspartate amino transferase, alanine amino transferase, gamma-glutamyl transferase, lactate dehydrogenase, total protein, albumin, globulin, amylase and glucose."}, "[3]": {"test_system": "Enteropathogenic E. coli (EPEC) E2348/69", "experiment": "Crystal violet assay of attachment to plastic wells", "format": "cell-based, Escherichia coli", "settings": "FeDOPA 68-250 μM; 48 hours at 37° C.", "protocol": "(§3) Enteropathogenic E. coli (EPEC) E2348/69 were grown in wells for 48 hours at 37° C. in the presence of FeQ (100 μM), and in the absence of FeQ (as control). After 48 hours, the wells were washed in order to remove suspended cells. Crystal violet was then added to each well. The wells were then washed to remove excess dye. A mixture of acetone/ethanol was then added to the wells to re-suspend any cells attached to the plastic surface of the wells, and dissolve any dye present. The presence of dye in each well was then quantified by measuring the O.D. at 570 nm.\nas §3, with “FeDOPA (10-250” for “FeQ (100”, “FeDOPA” for “FeQ”"}, "[4]": {"test_system": "Psuedomonas aeruginosa (PAO1N)", "experiment": "Growth (OD600) in LB with Amikacin, tolerance to antibiotic", "format": "cell-based, Pseudomonas aeruginosa", "settings": "34, 100, 200 and 340 μM of FeQ or FePhe; Amikacin 10 µg/ml; 17.5 hours at 37° C.", "protocol": "(§4) To investigate effects upon antibiotic resistance, a laboratory strain of Psuedomonas aeruginosa (PAO1N) and a mixed population of clinical isolates (PAO Mixed) were incubated in Luria-Bertani (LB) media alone, or with different concentrations (34 μM, 100 μM, 200 μM and 340 μM) of FeQ or FePhe.\n(§5) Each of the different media, bar one control, contained 10 µg/ml of the aminoglycoside antibiotic Amikacin.\n(§6) 10 μl of the bacterial strains were added into each well of a 96-well micro-titer plate, before 290 μl of the relevant media was added to wells. Each different condition was repeated in sextuplicate.\n(§7) The plate was incubated at 37° C. within a micro-titer plate reader for 17.5 hours, with the OD600 read every 30 minutes."}, "[5]": {"test_system": "mixed population of clinical isolates (PAO Mixed)", "experiment": "Growth (OD600) in LB with Amikacin, tolerance to antibiotic", "format": "cell-based, Pseudomonas aeruginosa", "settings": "34, 100, 200 and 340 μM of FeQ or FePhe; Amikacin 10 µg/ml; 17.5 hours at 37° C.", "protocol": "as §4, §5, §6, §7"}}, "note": "“Also recorded” adds a separate entry of the source."}
{"compound": "O=C1[O][Fe]23([NH]C1Cc1ccc(O)cc1)([NH]C(Cc1ccc(O)cc1)C(=O)[O]2)[NH]C(Cc1ccc(O)cc1)C(=O)[O]3", "note": "[FeTyr, a complex of L-tyrosine with Fe III]", "values": [{"measurement": "optical absorbance of crystal violet at 570 nm of remaining mature biofilm versus untreated", "setting": "EPEC-pgA^++", "value": "significantly lower optical absorbance"}, {"measurement": "ABW at day 42 versus positive control (challenged, untreated)", "setting": "[1]", "value": "performed better than the positive control"}, {"measurement": "MFCR at day 42 versus positive control (challenged, untreated)", "setting": "[1]", "value": "performed better than the positive control"}, {"measurement": "dispersion of mature biofilm", "setting": "EPEC-AcsrA; FeTyr 100, 150 and 200 μM", "value": "biofilm dispersion increased"}, {"measurement": "rate of growth (growth curve)", "setting": "[2]; Fe-Tyr 100 μM alone", "value": "comparable to the control"}, {"measurement": "rate of growth relative to gentamicin alone", "setting": "[2]; gentamicin 1.25 μM and Fe-Tyr 1.25 μM", "value": "loses its resistance; also recorded: inhibited"}, {"measurement": "average Campylobacter cfu/g of caeca samples at day 42 versus positive control", "setting": "Campylobacter", "value": "lower levels of Campylobacter in their caeca; also recorded: performed better than the positive control"}]}
{"compound": "O=C1[O][Fe]23([NH]C1Cc1ccc(O)c(O)c1)([NH]C(Cc1ccc(O)c(O)c1)C(=O)[O]2)[NH]C(Cc1ccc(O)c(O)c1)C(=O)[O]3", "note": "[FeDOPA, a complex of L-DOPA with Fe III (3,4 dihydrophenylalanine)]", "values": [{"measurement": "dispersion of mature biofilm", "setting": "EPEC-AcsrA; FeDOPA 100 μM", "value": "dispersed the biofilm"}, {"measurement": "rate of growth relative to gentamicin alone", "setting": "[2]; gentamicin 1.25 μM and FeDOPA 130, 160, 200 μM", "value": "inhibited"}, {"measurement": "attachment of EPEC cells to plastic well surface and biofilm formation (crystal violet, O.D. 570 nm)", "setting": "[3]", "value": "inhibited"}]}
{"compound": "A complex of L-phenylalanine with Fe III [Fe-Phe]", "values": [{"measurement": "tolerance to the aminoglycoside Amikacin (OD600 growth)", "setting": "[4]", "value": "reducing tolerance"}, {"measurement": "tolerance to the aminoglycoside Amikacin (OD600 growth)", "setting": "[5]", "value": "reducing tolerance"}]}
